These results are taken from US10487094B1, “Bergenin thiodipropionic acid ester with antioxidant activity and a method of improving the antioxidant property of ganoderma lucidum spore oil using the same” (SHAANXI UNIVERSITY OF SCIENCE AND TECHNOLOGY, priority 2018, dated 2019).

Test [1] is described as follows: DPPH radical scavenging activity of sample and control solutions. It counts as biochemical. The following applies: for Scavenging activity: 0.2 mmol/L DPPH, 30 min, 517 nm, n = 3. The source says: In the DPPH molecule, due to the presence of multiple electron-withdrawing —NO2 and large π bonds of the benzene ring, nitrogen free radical is stabilized. Its methanol solution is purple and has a maximum absorption peak at 517 nm. After the addition of an antioxidant, DPPH captures an electron to be paired with the free electron, and the purple fades and turns into a yellow substance. The absorption at 517 nm disappears, and the degree of fading is quantitatively related to the number of electrons it captures. Based on this principle, a spectrophotometer is used to detect the change of the absorbance of the DPPH radical and the sample solution, and the ability of the sample to provide hydrogen atoms and scavenge free radicals can be measured.
Preparation of DPPH Solution: Measuring Exact Amount of 1,1-diphenyl-2-picryl hydrazyl (DPPH) and dissolving in methanol to prepare a 0.2 mmol/L DPPH Solution, Stored at 0° C. in Dark
Preparation of sample solutions: Vitamin C (positive control), bergenin thiodipripionic acid ester (sample), bergenin (control), thiodipropionic acid (control), mixture of bergenin and thiodipropionic acid (control). The sample solution was serially diluted with acetonitrile, and four groups of controls were separately dissolved in a test tube with a certain amount of methanol to prepare the same concentration gradient as the sample. Four corresponding groups of control solutions were prepared in the same way.
2 mL of the sample solution (Table 1: B), 2 mL 0.2 mmol/L DPPH solution was added, the mixture was mixed and reacted at room temperature in dark for 30 minutes, and methanol was then added to adjust final volume. The absorbance Ai was measured at 517 nm. 2 mL control solution and 2 mL methanol were mixed, and the absorbance Aj was measured. 2 mL DPPH solution and 2 mL methanol were mixed, and the absorbance A0 was measured.
2 mL of the control solutions (Table 1: C, D, E), 2 mL 0.2 mmol/L DPPH solution was added, the mixture was mixed and reacted at room temperature in dark for 30 minutes, and methanol was then added to adjust final volume. The absorbance Ai was measured at 517 nm. 2 mL control solution and 2 mL methanol were mixed, and the absorbance Aj was measured. 2 mL DPPH solution and 2 mL methanol were mixed, and the absorbance A0 was measured. The scavenging activity of the sample solution and control solutions is calculated according to the following calculation formula. Scavenging activity (%)=[1−(Ai−Aj)/Ao]*100%
(In general: Loss of DPPH colour is used to gauge radical scavenging.)

The nature of test [2]: DPPH radical scavenging activity of Ganoderma lucidum spore oil with and without bergenin thiodipripionic acid ester. It counts as biochemical. The following applies: added at 0.2%, 0.4%, 0.6%.

Molecules are shown by their SMILES.

In the case of `COc1c(O)cc2c(c1O)[C@@H]1O[C@H](CO)[C@@H](O)[C@H](O)[C@H]1OC2=O` [C, Bergenin], the Scavenging activity in test [1] (0.04 mg/ml) was 8.63%; in test [1] (0.08 mg/ml) it was 12.25%; in test [1] (0.16 mg/ml), 19.80%; in test [1] (0.83 mg/ml), 25.59%; in test [1] (1.66 mg/ml), 41.86%; in test [1] (8.28 mg/ml) it was 59.12%. Further, the Scavenging activity is reported as 94.78% in test [1] (16.56 mg/ml), 94.87% in test [1] (24.84 mg/ml) and 95.18% in test [1] (33.12 mg/ml).
For `O=C1O[C@H]([C@@H](O)CO)C(O)=C1O` [Vc, Vitamin C], the Scavenging activity in test [1] (0.04 mg/ml) is 94.90%; in test [1] (0.08 mg/ml), 94.90%; in test [1] (0.16 mg/ml) it was 95.03%; in test [1] (0.83 mg/ml), 95.03%; in test [1] (1.66 mg/ml) it was 98.67%; in test [1] (8.28 mg/ml) it was 98.92%. Further, the Scavenging activity in test [1] (16.56 mg/ml), in test [1] (24.84 mg/ml) and in test [1] (33.12 mg/ml) was 99.00% in each case.
On to `COc1c(O)cc2c(c1O)C1OC(COC(=O)CCSCCC(=O)OCC3OC4c5c(cc(O)c(OC)c5O)C(=O)OC4C(O)C3O)C(O)C(O)C1OC2=O` (centres unmarked) [B, bis((3,4,8,10-tetrahydroxy-9-methoxy-6-oxo-2,3,4,4a,6,10b-hexahydropyrano[3,2-c]isochromen-2-yl)methyl) 3,3′-thiodipropionate], for which the “effect on antioxidant capacity of Ganoderma lucidum spore oil” value in test [2] is recorded as “improves the antioxidant capacity of Ganoderma lucidum spore oil”. For the same molecule, the Scavenging activity in test [1] (0.04 mg/ml) is on record as 28.01%; in test [1] (0.08 mg/ml) it was 37.78%; in test [1] (0.16 mg/ml), 51.33%; in test [1] (0.83 mg/ml), 60.22%; in test [1] (1.66 mg/ml), 76.33%; in test [1] (8.28 mg/ml), 82.56%. For the same molecule, the Scavenging activity in test [1] (16.56 mg/ml) is 95.67%; in test [1] (24.84 mg/ml), 96.22%; in test [1] (33.12 mg/ml), 96.22%. Moreover, the “scavenging ability compared with bergenin (C), thiodipropionic acid (D) and their 2:1 mixture (E)” value in test [1] (at the same concentration) is “significantly better”.
As for `O=C(O)CCSCCC(=O)O` [D, Thiodipropionic acid], the Scavenging activity in test [1] (0.04 mg/ml) is on record as 1.96%; in test [1] (0.08 mg/ml), 8.73%; in test [1] (0.16 mg/ml), 9.07%; in test [1] (0.83 mg/ml), 9.18%; in test [1] (1.66 mg/ml) it was 9.41%; in test [1] (8.28 mg/ml) it was 10.56%. Also, the Scavenging activity in test [1] (16.56 mg/ml) is 11.83%; in test [1] (24.84 mg/ml) it was 13.09%; in test [1] (33.12 mg/ml), 14.47%.
